In US20230390386A1, “REPLICATION-DEFECTIVE VACCINES AND USES THEREOF” (priority 2020, published 2023):

System: E. coli
Assay: CM treatment of E. coli, colony count on LB agar plates
Format: cell-based
Conditions: three hours at room temperature
Experimental: CM treatment of E. coli: Overnight cultures of E. coli culture were diluted 200 times in LB media to make final volume of 1 ml and treated with different concentrations (100 μM, 10 μM, 1 μM, and 0.1 μM) of centanamycin for three hours at room temperature. The treated E. coli cells were then centrifuged at 10,000 rpm for 1 min, supernatant was removed and the pellet was resuspended in 100 μl of LB and plated on the LB agar plate without any antibiotic. The plates were then incubated at 37° C. for 16 hours. To determine the effect of centanamycin, the number of colonies were counted on each plate.
First, a culture of E. coli that had been established by an overnight incubation was diluted 200 times in LB media to make final volume to be 1 ml, followed by treatment with different concentrations of centanamycin (100 μM, 10 μM, 1 μM, and 0.1 μM) for three hours at room temperature. The treated cells were then centrifuged at 10,000 rpm for 1 min, supernatant was removed and the pellet was resuspended in 100 μl of LB and plated on LB agar plates without any antibiotic. The plates were then incubated at 37° C. for 16 hours. To determine the effect of centanamycin, the number of colonies on each plate were counted (FIGS. 6A-6B). […] Some of these bacteria were replication-defective and attenuated, making them suitable for use as vaccines.

COc1cc2cc(C(=O)Nc3cc(N)c4ccccc4c3CCCl)[nH]c2c(OC)c1OC [CM, centanamycin]
E. coli colonies on LB agar plate after 16 hours (0.1 μM): reduce the number of bacterial colonies on the agar plate in a dose dependent manner
E. coli colonies on LB agar plate after 16 hours (1 μM): reduce the number of bacterial colonies on the agar plate in a dose dependent manner
E. coli colonies on LB agar plate after 16 hours (10 μM): reduce the number of bacterial colonies on the agar plate in a dose dependent manner
E. coli colonies on LB agar plate after 16 hours (100 μM): did not grow on the LB agar plate
